Reference: patent publication US20260347364A1, “PYRAZOLO[4,3-F]QUINAZOLINE DERIVATIVES AS MODULATORS OF G12D MUTANT KRAS USEFUL FOR THE TREATMENT OF CANCER” (JAZZ PHARMACEUTICALS IRELAND LTD., priority 2023, published 2026)

Tests used:
KRAS G12D = target: T1, KRAS G12D (Homo sapiens, UniProt P01116, G12D); assay: HTRF nucleotide exchange assay, KRAS G12D; type: biochemical; conditions: class symbols; for IC50: HTRF nucleotide exchange assay (NEA)
T1 construct: aa1-188 KRAS WT, HRAS WT, NRAS WT, or KRAS containing the G12D

KRAS WT = target: T2, KRAS WT (Homo sapiens, UniProt P01116); assay: HTRF nucleotide exchange assay, KRAS WT; type: biochemical; conditions: class symbols; for IC50: HTRF nucleotide exchange assay (NEA)
T2 construct: aa1-188 KRAS WT

Row | SMILES | IC50 (KRAS G12D) [nM] | IC50 (KRAS WT) [nM] | KRAS^WT NEA (KRAS WT) | KRAS^G12D NEA (KRAS G12D)
1 | CCc1c(F)ccc2cc(O)cc(-c3c(C)c4nc(OCC5(CN(C)C)CC5)nc(N5CCOCC(C)(O)C5)c4c4cn(C)nc34)c12 (stereo not drawn) [Example 142, 4-[7-[[1-[(dimethylamino)methyl]cyclopropyl]methoxy]-4-(8-ethyl-7-fluoro-3-hydroxy-1-naphthyl)-2,5-dimethyl-pyrazolo[4,3-f]quinazolin-9-yl]-6-methyl-1,4-oxazepan-6-ol] | ≤ 10 | ≤ 10 |  | 
2 | Cc1c(-c2ncc(F)c3sc(N)c(C#N)c23)c2nn(C)cc2c2c(N3CCOCC(C)(O)C3)nc(OC[C@@]34CCCN3C[C@H](F)C4)nc12 (stereo partly drawn) [Example 108, 2-amino-7-fluoro-4-[7-[[(2R,8S)-2-fluoro-1,2,3,5,6,7-hexahydropyrrolizin-8-yl]methoxy]-9-(6-hydroxy-6-methyl-1,4-oxazepan-4-yl)-2,5-dimethyl-pyrazolo[4,3-f]quinazolin-4-yl]thieno[3,2-c]pyridine-3-carbonitrile] | 100 to 10000 | 100 to 10000 |  | 
3 | CCc1c(F)ccc2cc(O)cc(-c3c(F)c4nc(OCC5(CN6CCCC6)CC5)nc(N5CCOCC(C)(O)C5)c4c4cn(C)nc34)c12 (stereo not drawn) [Example 155, 4-[4-(8-ethyl-7-fluoro-3-hydroxy-1-naphthyl)-5-fluoro-2-methyl-7-[[1-(pyrrolidin-1-ylmethyl)cyclopropyl]methoxy]pyrazolo[4,3-f]quinazolin-9-yl]-6-methyl-1,4-oxazepan-6-ol] | ≤ 10 | ≤ 10 |  | 
4 | CCc1c(F)ccc2cc(O)cc(-c3c(F)c4nc(OCC56COC(COC)(C5)C6)nc(N5CCCn6nc(C(=O)N(C)C)cc6C5)c4c4cn(C)nc34)c12 [Example 208, 5-[4-(8-ethyl-7-fluoro-3-hydroxy-1-naphthyl)-5-fluoro-7-[[1-(methoxymethyl)-2-oxabicyclo[2.1.1]hexan-4-yl]methoxy]-2-methyl-pyrazolo[4,3-f]quinazolin-9-yl]-N,N-dimethyl-4,6,7,8-tetrahydropyrazolo[1,5-a][1,4]diazepine-2-carboxamide] | ≤ 10 | 10 to 100 |  | 
5 | CCc1c(F)ccc2cc(O)cc(-c3cc4nc(OC[C@@]56CCCN5C[C@H](F)C6)nc(N5CCCOCC5)c4c4cn(C5CC5)nc34)c12 [Example 44, 4-[2-cyclopropyl-9-(1,4-oxazepan-4-yl)-7-[[(2R,8S)-2-fluoro-1,2,3,5,6,7-hexahydropyrrolizin-8-yl]methoxy]pyrazolo[4,3-f]quinazolin-4-yl]-5-ethyl-6-fluoro-naphthalen-2-ol] | 10 to 100 | 10 to 100 |  | 
6 | CCc1c(F)ccc2cc(O)cc(-c3cc4nc(OC[C@@]56CCCN5C[C@H](F)C6)nc(N5CCOCC(C)(O)C5)c4c4cn(C)nc34)c12 (stereo partly drawn) [Example 8, 4-[4-(8-ethyl-7-fluoro-3-hydroxy-1-naphthyl)-2-methyl-7-[[(2R,8S)-2-fluoro-1,2,3,5,6,7-hexahydropyrrolizin-8-yl]methoxy]pyrazolo[4,3-f]quinazolin-9-yl]-6-methyl-1,4-oxazepan-6-ol] | ≤ 10 | ≤ 10 |  | 
7 | CCc1c(F)ccc2cc(O)cc(-c3c(F)c4nc(OCC5(CN6CC[C@@H](F)C6)CC5)nc(N5CCOCC(C)(O)C5)c4c4cn(C)nc34)c12 (stereo partly drawn) [Example 193, 4-[4-(8-ethyl-7-fluoro-3-hydroxy-1-naphthyl)-5-fluoro-2-methyl-7-[[1-[[(3R)-3-fluoropyrrolidin-1-yl]methyl]cyclopropyl]methoxy]pyrazolo[4,3-f]quinazolin-9-yl]-6-methyl-1,4-oxazepan-6-ol] | ≤ 10 | ≤ 10 |  | 
8 | C#Cc1c(F)ccc2cc(O)cc(-c3cc4nc(OC[C@@]56CCCN5C[C@H](F)C6)nc(N5CCCNCC5)c4c4cn(C)nc34)c12 (single isomer, unassigned) [Example 36] | ≤ 10 | 10 to 100 |  | 
9 | Cc1cc2[nH]ncc2c(-c2cc3nc(OC[C@@]45CCCN4C[C@H](F)C5)nc(N4CCCn5nc(C(=O)N(C)C)cc5C4)c3c3cn(C)nc23)c1C [Example 60, 5-[4-(5,6-dimethyl-1H-indazol-4-yl)-2-methyl-7-[[(2R,8S)-2-fluoro-1,2,3,5,6,7-hexahydropyrrolizin-8-yl]methoxy]pyrazolo[4,3-f]quinazolin-9-yl]-N,N-dimethyl-4,6,7,8-tetrahydropyrazolo[1,5-a][1,4]diazepine-2-carboxamide] | 10 to 100 | 100 to 10000 |  | 
10 | CCc1c(F)ccc2cc(O)cc(-c3c(C)c4nc(OC[C@@H]5CCCN5C)nc(N5CCOCC(C)(O)C5)c4c4cn(C)nc34)c12 (stereo partly drawn) [Example 138, 4-[4-(8-ethyl-7-fluoro-3-hydroxy-1-naphthyl)-2,5-dimethyl-7-[[(2S)-1-methylpyrrolidin-2-yl]methoxy]pyrazolo[4,3-f]quinazolin-9-yl]-6-methyl-1,4-oxazepan-6-ol] | ≤ 10 | ≤ 10 |  | 
11 | Cn1cc2c(n1)c(-c1cc(O)ccc1F)cc1nc(OC[C@@]34CCCN3C[C@H](F)C4)nc(N3CCCOCC3)c12 [Example 5] | 100 to 10000 |  | D (<49% inhibition at 10 μM) | 
12 | CCc1c(F)ccc2cc(O)cc(-c3cc4nc(OC[C@@]56CCCN5C[C@H](F)C6)nc(N5CCCOCC5)c4c4cnn(C)c34)c12 [Example 46, 5-ethyl-6-fluoro-4-[3-methyl-9-(1,4-oxazepan-4-yl)-7-[[(2R,8S)-2-fluoro-1,2,3,5,6,7-hexahydropyrrolizin-8-yl]methoxy]pyrazolo[4,3-f]quinazolin-4-yl]naphthalen-2-ol] |  | 100 to 10000 |  | D (<49% inhibition at 10 μM)
13 | CCc1c(F)ccc2cc(O)cc(-c3c(F)c4nc(OCC5(CN6CCCC6)CC5)nc(N5CCC[C@@](C)(O)C5)c4c4cn(C)nc34)c12 [Example 202, (3R)-1-[4-(8-ethyl-7-fluoro-3-hydroxy-1-naphthyl)-5-fluoro-2-methyl-7-[[1-(pyrrolidin-1-ylmethyl)cyclopropyl]methoxy]pyrazolo[4,3-f]quinazolin-9-yl]-3-methyl-piperidin-3-ol] | ≤ 10 | ≤ 10 |  | 
14 | Cn1cc2c(n1)c(-c1cc(O)cc3c1C(=O)CCC3)cc1nc(OC[C@@]34CCCN3C[C@H](F)C4)nc(N3CCCOCC3)c12 [Example 58, 6-hydroxy-8-[2-methyl-9-(1,4-oxazepan-4-yl)-7-[[(2R,8S)-2-fluoro-1,2,3,5,6,7-hexahydropyrrolizin-8-yl]methoxy]pyrazolo[4,3-f]quinazolin-4-yl]tetralin-1-one] |  |  | D (<49% inhibition at 10 μM) | D (<49% inhibition at 10 μM)
15 | CN(C)C(=O)c1cc2n(n1)CCCN(c1nc(OC[C@@]34CCCN3C[C@H](F)C4)nc3cc(-c4cc(O)c(F)c5ccccc45)c4nn(C)cc4c13)C2 [Example 61, 5-[4-(4-fluoro-3-hydroxy-1-naphthyl)-2-methyl-7-[[(2R,8S)-2-fluoro-1,2,3,5,6,7-hexahydropyrrolizin-8-yl]methoxy]pyrazolo[4,3-f]quinazolin-9-yl]-N,N-dimethyl-4,6,7,8-tetrahydropyrazolo[1,5-a][1,4]diazepine-2-carboxamide] | 10 to 100 | 100 to 10000 |  | 
16 | CCc1c(F)ccc2cc(O)cc(-c3c(F)c4nc(OCC56CCCN5CCC6)nc(N5CCC[C@@](C)(O)C5)c4c4cn(C)nc34)c12 [Example 203, (3R)-1-[4-(8-ethyl-7-fluoro-3-hydroxy-1-naphthyl)-5-fluoro-7-(1,2,3,5,6,7-hexahydropyrrolizin-8-ylmethoxy)-2-methyl-pyrazolo[4,3-f]quinazolin-9-yl]-3-methyl-piperidin-3-ol] | ≤ 10 | ≤ 10 |  | 
17 | C#Cc1c(F)ccc2cc(O)cc(-c3c(C)c4nc(OC[C@@]56CCCN5C[C@H](F)C6)nc(N5CCOCC(C)(O)C5)c4c4cn(C)nc34)c12 (stereo partly drawn) [Example 185, 4-[4-(8-ethynyl-7-fluoro-3-hydroxy-1-naphthyl)-7-[[(2R,8S)-2-fluoro-1,2,3,5,6,7-hexahydropyrrolizin-8-yl]methoxy]-2,5-dimethyl-pyrazolo[4,3-f]quinazolin-9-yl]-6-methyl-1,4-oxazepan-6-ol] | 10 to 100 | ≤ 10 |  | 
18 | CCc1c(F)ccc2cc(O)cc(-c3cc4nc(OC[C@@]56CCCN5C[C@H](F)C6)nc(N5CCC(C)(OC)CC5)c4c4cn(C)nc34)c12 [Example 119, 5-ethyl-6-fluoro-4-[9-(4-methoxy-4-methyl-1-piperidyl)-2-methyl-7-[[(2R,8S)-2-fluoro-1,2,3,5,6,7-hexahydropyrrolizin-8-yl]methoxy]pyrazolo[4,3-f]quinazolin-4-yl]naphthalen-2-ol] | 100 to 10000 | 100 to 10000 |  | 
19 | CCc1c(F)ccc2cc(O)cc(-c3c(F)c4nc(OC[C@@]56CCCN5C[C@H](F)C6)nc(N5CC6CCC5CN6)c4c4cn(C)nc34)c12 (stereo partly drawn) [Example 179, 4-[9-(2,5-diazabicyclo[2.2.2]octan-2-yl)-5-fluoro-2-methyl-7-[[(2R,8S)-2-fluoro-1,2,3,5,6,7-hexahydropyrrolizin-8-yl]methoxy]pyrazolo[4,3-f]quinazolin-4-yl]-5-ethyl-6-fluoro-naphthalen-2-ol] | ≤ 10 | ≤ 10 |  | 
20 | CCc1c(F)ccc2cc(O)cc(-c3c(F)c4nc(OCC5(CN(C)CC)CC5)nc(N5CCOCC(C)(O)C5)c4c4cn(C)nc34)c12 (stereo not drawn) [Example 212, 4-[4-(8-ethyl-7-fluoro-3-hydroxy-1-naphthyl)-7-[[1-[[ethyl(methyl)amino]methyl]cyclopropyl]methoxy]-5-fluoro-2-methyl-pyrazolo[4,3-f]quinazolin-9-yl]-6-methyl-1,4-oxazepan-6-ol] | ≤ 10 | ≤ 10 |  | 
21 | C#Cc1c(F)ccc2cc(O)cc(-c3cc4nc(OC[C@@]56CCCN5C[C@H](F)C6)nc(N5CCCC(C)(O)C5)c4c4cn(C)nc34)c12 (stereo partly drawn) [Example 33, 1-[4-(8-ethynyl-7-fluoro-3-hydroxy-1-naphthyl)-2-methyl-7-[[(2R,8S)-2-fluoro-1,2,3,5,6,7-hexahydropyrrolizin-8-yl]methoxy]pyrazolo[4,3-f]quinazolin-9-yl]-3-methyl-piperidin-3-ol] | 10 to 100 | 10 to 100 |  | 
